PMC12307812 (Nature Communications, 2025)
Where two headings read alike, the source gives them in different places.

Tests used:
[1] = test system: vesicular stomatitis virus (VSV); type: cell-based; settings: VSV
[2] = target: T1, Recombinant Human TMPRSS2 (Homo sapiens, UniProt O15393); assay: TMPRSS2 biochemical assay with pre-incubation of inhibitor and enzyme; settings: for inhibition at 2.788 pM: concentration 0.00278767 nM; for inhibition at 8.363 pM: concentration 0.00836301 nM; for inhibition at 25.09 pM: concentration 0.025089 nM; for inhibition at 75.27 pM: concentration 0.0752671 nM; for inhibition at 0.000225801 µM: concentration 0.225801 nM; for inhibition at 0.000677404 µM: concentration 0.677404 nM; for inhibition at 0.00203221 µM: concentration 2.03221 nM; for inhibition at 0.00609663 µM: concentration 6.09663 nM; for inhibition at 0.0182899 µM: concentration 18.2899 nM; for inhibition at 0.0548697 µM: concentration 54.8697 nM; for inhibition at 0.164609 µM: concentration 164.609 nM; for inhibition at 0.493827 µM: concentration 493.827 nM; for inhibition at 1.48148 µM: concentration 1481.48 nM; for inhibition at 4.44444 µM: concentration 4444.44 nM; for inhibition at 13.3333 µM: concentration 13333.3 nM; for inhibition at 40 µM: concentration 40000 nM
T1 construct: human TMPRSS2 residues 106492, N-terminal 6x His-tag; 6x His-tag (N); purchased Cusabio CSB-YP023924HU; host or cells: yeast
T1 sequence (O15393 106-492 limits assumed): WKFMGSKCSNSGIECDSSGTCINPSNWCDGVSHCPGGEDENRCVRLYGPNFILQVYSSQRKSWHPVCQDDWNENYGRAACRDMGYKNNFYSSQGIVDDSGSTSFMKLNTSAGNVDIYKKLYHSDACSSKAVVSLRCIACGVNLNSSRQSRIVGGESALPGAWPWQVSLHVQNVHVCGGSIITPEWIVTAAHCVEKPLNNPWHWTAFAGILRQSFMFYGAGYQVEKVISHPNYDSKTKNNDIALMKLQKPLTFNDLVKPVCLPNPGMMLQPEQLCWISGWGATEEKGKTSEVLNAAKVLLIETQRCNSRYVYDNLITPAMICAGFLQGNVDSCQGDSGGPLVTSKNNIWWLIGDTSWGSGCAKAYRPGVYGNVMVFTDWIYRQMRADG
Description: To that was dispensed TMPRSS2 (5 µl, 0.018 mg/ml) in assay buffer (50 mM Tris pH 8, 150 mM NaCl, 0.01% Tween20) using a BioRAPTR (Beckman Coulter) to give a total reaction volume of 5 µl. […] The final assay conditions are 10 µM peptide, 0.018 mg/ml TMPRSS2 in assay buffer (50 mM Tris-HCl, pH 8, 150 mM NaCl, 0.01% Tween20).
After incubation at room temperature for 1 h, fluorescence was measured. […] Raw plate reads for each titration point were normalized relative to a positive control containing no enzyme (0% activity, full inhibition) and a negative control containing DMSO-only wells (100% activity, basal activity). Data normalization was performed using GraphPad Prism (GraphPad Software, San Diego, CA).
We employed the curve fitting algorithm available in the SciPy package (version 1.10.1)[61] to derive the Hill slope and the IC50 value, along with their corresponding error estimates.
To model the relationship between the pre-incubation time and the IC50, we use the following equation inspired by the Morse potential:3 ft,a,D,te=D⋅1−exp−a⋅t−te^2 where t is the time, a is the width of the well, D is the IC50 at infinite time (depth of the well) and te is the time at which the IC50 reaches its minimum. Again, we made use of SciPy’s curve fitting method to obtain parameters a, D and te, with their respective error estimates.

[3] = test system: pseudovirus bearing S protein of HCoV-NL63; assay: organism not typed; type: cell-based
[4] = Calu-3, read-out: mean inhibition

`CN(C)C(=O)COC(=O)Cc1ccc(OC(=O)c2ccc(NC(=N)N)cc2)cc1` [camostat] was tested, and the “mean log10(PFU/ml)” value ([1]; concentration 5 nM) was 9.003 log10(PFU/ml), the “mean log10(PFU/ml)” value ([1]; concentration 50 nM) was 8.994 log10(PFU/ml) and the “mean log10(PFU/ml)” value ([1]; concentration 500 nM) was 9.01 log10(PFU/ml). The “mean log10(PFU/ml)” value ([1]; concentration 5000 nM) was 9.013 log10(PFU/ml), the “mean log10(PFU/ml)” value ([1]; concentration 50000 nM) was 8.989 log10(PFU/ml) and the inhibition at 2.788 pM ([2]; pre-incubation 0) was -8.21%. For the same compound, the inhibition at 8.363 pM ([2]; pre-incubation 0) was -16.5%, the inhibition at 25.09 pM ([2]; pre-incubation 0) was -12.1% and the inhibition at 75.27 pM ([2]; pre-incubation 0) was 11.6%. For the same compound, the inhibition at 0.000225801 µM ([2]; pre-incubation 0) was 44.8%, the inhibition at 0.000677404 µM ([2]; pre-incubation 0) was 63.8% and the inhibition at 0.00203221 µM ([2]; pre-incubation 0) was 78.4%. The inhibition at 0.00609663 µM ([2]; pre-incubation 0) was 87.8%, the inhibition at 0.0182899 µM ([2]; pre-incubation 0) was 93.9% and the inhibition at 0.0548697 µM ([2]; pre-incubation 0) was 95.2%. The inhibition at 0.164609 µM ([2]; pre-incubation 0) was 94.9%, the inhibition at 0.493827 µM ([2]; pre-incubation 0) was 96.5% and the inhibition at 1.48148 µM ([2]; pre-incubation 0) was 97.9%. It also gave an inhibition at 4.44444 µM ([2]; pre-incubation 0) of 97.2%, an inhibition at 13.3333 µM ([2]; pre-incubation 0) of 98.7% and an inhibition at 40 µM ([2]; pre-incubation 0) of 98.9%. It also gave an inhibition at 2.788 pM ([2]; pre-incubation 1) of 6.01%, an inhibition at 8.363 pM ([2]; pre-incubation 1) of 2.49% and an inhibition at 25.09 pM ([2]; pre-incubation 1) of 10%. It also gave an inhibition at 75.27 pM ([2]; pre-incubation 1) of 58.4%, an inhibition at 0.000225801 µM ([2]; pre-incubation 1) of 90.2% and an inhibition at 0.000677404 µM ([2]; pre-incubation 1) of 93.6%. It also gave an inhibition at 0.00203221 µM ([2]; pre-incubation 1) of 94.9%, an inhibition at 0.00609663 µM ([2]; pre-incubation 1) of 95.1% and an inhibition at 0.0182899 µM ([2]; pre-incubation 1) of 94.9%. It also gave an inhibition at 0.0548697 µM ([2]; pre-incubation 1) of 96.1%, an inhibition at 0.164609 µM ([2]; pre-incubation 1) of 96% and an inhibition at 0.493827 µM ([2]; pre-incubation 1) of 95.8%. The inhibition at 1.48148 µM ([2]; pre-incubation 1) was 97.1%, the inhibition at 4.44444 µM ([2]; pre-incubation 1) was 97.4% and the inhibition at 13.3333 µM ([2]; pre-incubation 1) was 98.2%. For the same compound, the inhibition at 40 µM ([2]; pre-incubation 1) was 99.4%, the inhibition at 2.788 pM ([2]; pre-incubation 4) was 8.38% and the inhibition at 8.363 pM ([2]; pre-incubation 4) was 5.55%. It also gave an inhibition at 25.09 pM ([2]; pre-incubation 4) of 35.8%, an inhibition at 75.27 pM ([2]; pre-incubation 4) of 91% and an inhibition at 0.000225801 µM ([2]; pre-incubation 4) of 96.5%. The inhibition at 0.000677404 µM ([2]; pre-incubation 4) was 97.6%, the inhibition at 0.00203221 µM ([2]; pre-incubation 4) was 97.9% and the inhibition at 0.00609663 µM ([2]; pre-incubation 4) was 98.2%. It also gave an inhibition at 0.0182899 µM ([2]; pre-incubation 4) of 98%, an inhibition at 0.0548697 µM ([2]; pre-incubation 4) of 98.6% and an inhibition at 0.164609 µM ([2]; pre-incubation 4) of 98.2%. For the same compound, the inhibition at 0.493827 µM ([2]; pre-incubation 4) was 99.2%, the inhibition at 1.48148 µM ([2]; pre-incubation 4) was 99.4% and the inhibition at 4.44444 µM ([2]; pre-incubation 4) was 100%. The inhibition at 13.3333 µM ([2]; pre-incubation 4) was 101%, the inhibition at 40 µM ([2]; pre-incubation 4) was 102% and the inhibition at 2.788 pM ([2]; pre-incubation 8) was 20.8%. The inhibition at 8.363 pM ([2]; pre-incubation 8) was 10.7%, the inhibition at 25.09 pM ([2]; pre-incubation 8) was 61.7% and the inhibition at 75.27 pM ([2]; pre-incubation 8) was 104%. For the same compound, the inhibition at 0.000225801 µM ([2]; pre-incubation 8) was 108%, the inhibition at 0.000677404 µM ([2]; pre-incubation 8) was 110% and the inhibition at 0.00203221 µM ([2]; pre-incubation 8) was 111%. The inhibition at 0.00609663 µM ([2]; pre-incubation 8) was 112%, the inhibition at 0.0182899 µM ([2]; pre-incubation 8) was 111% and the inhibition at 0.0548697 µM ([2]; pre-incubation 8) was 112%. For the same compound, the inhibition at 0.164609 µM ([2]; pre-incubation 8) was 113%, the inhibition at 0.493827 µM ([2]; pre-incubation 8) was 113% and the inhibition at 1.48148 µM ([2]; pre-incubation 8) was 114%. It also gave an inhibition at 4.44444 µM ([2]; pre-incubation 8) of 115%, an inhibition at 13.3333 µM ([2]; pre-incubation 8) of 114% and an inhibition at 40 µM ([2]; pre-incubation 8) of 115%. It also gave an inhibition at 2.788 pM ([2]; pre-incubation 18) of 24.4%, an inhibition at 8.363 pM ([2]; pre-incubation 18) of 17.1% and an inhibition at 25.09 pM ([2]; pre-incubation 18) of 57.1%. For the same compound, the inhibition at 75.27 pM ([2]; pre-incubation 18) was 86.7%, the inhibition at 0.000225801 µM ([2]; pre-incubation 18) was 91.7% and the inhibition at 0.000677404 µM ([2]; pre-incubation 18) was 94.1%. For the same compound, the inhibition at 0.00203221 µM ([2]; pre-incubation 18) was 95.7%, the inhibition at 0.00609663 µM ([2]; pre-incubation 18) was 98.6% and the inhibition at 0.0182899 µM ([2]; pre-incubation 18) was 99.3%. It also gave an inhibition at 0.0548697 µM ([2]; pre-incubation 18) of 99.9%, an inhibition at 0.164609 µM ([2]; pre-incubation 18) of 101% and an inhibition at 0.493827 µM ([2]; pre-incubation 18) of 102%. It also gave an inhibition at 1.48148 µM ([2]; pre-incubation 18) of 102%, an inhibition at 4.44444 µM ([2]; pre-incubation 18) of 103% and an inhibition at 13.3333 µM ([2]; pre-incubation 18) of 103%. For the same compound, the inhibition at 40 µM ([2]; pre-incubation 18) was 104%, the inhibition at 2.788 pM ([2]; pre-incubation 24) was 38.3% and the inhibition at 8.363 pM ([2]; pre-incubation 24) was 38.8%. For the same compound, the inhibition at 25.09 pM ([2]; pre-incubation 24) was 73.1%, the inhibition at 75.27 pM ([2]; pre-incubation 24) was 100% and the inhibition at 0.000225801 µM ([2]; pre-incubation 24) was 105%. It also gave an inhibition at 0.000677404 µM ([2]; pre-incubation 24) of 107%, an inhibition at 0.00203221 µM ([2]; pre-incubation 24) of 107% and an inhibition at 0.00609663 µM ([2]; pre-incubation 24) of 108%. The inhibition at 0.0182899 µM ([2]; pre-incubation 24) was 110%, the inhibition at 0.0548697 µM ([2]; pre-incubation 24) was 110% and the inhibition at 0.164609 µM ([2]; pre-incubation 24) was 111%. For the same compound, the inhibition at 0.493827 µM ([2]; pre-incubation 24) was 111%, the inhibition at 1.48148 µM ([2]; pre-incubation 24) was 112% and the inhibition at 4.44444 µM ([2]; pre-incubation 24) was 112%. For the same compound, the inhibition at 13.3333 µM ([2]; pre-incubation 24) was 112%, the inhibition at 40 µM ([2]; pre-incubation 24) was 113% and the inhibition at 2.788 pM ([2]; pre-incubation 48) was 4.55%. For the same compound, the inhibition at 8.363 pM ([2]; pre-incubation 48) was -1.82%, the inhibition at 25.09 pM ([2]; pre-incubation 48) was 28.4% and the inhibition at 75.27 pM ([2]; pre-incubation 48) was 71.5%. It also gave an inhibition at 0.000225801 µM ([2]; pre-incubation 48) of 83.3%, an inhibition at 0.000677404 µM ([2]; pre-incubation 48) of 86.8% and an inhibition at 0.00203221 µM ([2]; pre-incubation 48) of 88.2%. The inhibition at 0.00609663 µM ([2]; pre-incubation 48) was 89.9%, the inhibition at 0.0182899 µM ([2]; pre-incubation 48) was 90.6% and the inhibition at 0.0548697 µM ([2]; pre-incubation 48) was 91.9%. For the same compound, the inhibition at 0.164609 µM ([2]; pre-incubation 48) was 92.7%, the inhibition at 0.493827 µM ([2]; pre-incubation 48) was 94.2% and the inhibition at 1.48148 µM ([2]; pre-incubation 48) was 95.1%. The inhibition at 4.44444 µM ([2]; pre-incubation 48) was 97%, the inhibition at 13.3333 µM ([2]; pre-incubation 48) was 100% and the inhibition at 40 µM ([2]; pre-incubation 48) was 107%. The IC50 ([3]; Calu-3, read-out: IC50 estimate, pseudovirus cell entry NL63-S) was 806 ± 263 nM, the inhibition at 0.00025 µM [3, 4] was -3.23% and the inhibition at 0.0025 µM [3, 4] was 5.92%. The inhibition at 0.025 µM [3, 4] was 15.4%, the inhibition at 0.25 µM [3, 4] was 41.9% and the inhibition at 2.5 µM [3, 4] was 66.4%. It also gave an inhibition at 25 µM [3, 4] of 73.2%.
